In PubChem BioAssay AID248 (DTP/NCI, 2004):
Toxic doses and inconclusive results are not listed. Rule as the data show it: active = T/C of 150% or more; inactive = T/C below 125%.

System: L1210 leukemia ip in BDF1 mice, survival T/C
Assay: NCI In Vivo Anticancer Drug Screen. Data for tumor model L1210 Leukemia (intraperitoneal) in B6D2F1 (BDF1) mice
Conditions: endpoint: mean survival time, higher = longer survival
In short: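 Tumor was transplanted into mice, which were then dosed with test compound or vehicle alone. Survival was recorded for each group, and the treated figure was expressed relative to the control figure.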

Measured: T/C

Nc1ccc2cn[nH]c2c1
inactive: dose: 50.0 mg/kg/injection, schedule: Q04DX002 (ip), vehicle: saline with Tween-80 100 % of control | dose: 100.0 mg/kg/injection, schedule: Q01DX009 (ip), vehicle: water 104 % of control | dose: 100.0 mg/kg/injection, schedule: Q04DX002 (ip), vehicle: saline with Tween-80 100 % of control | dose: 100.0 mg/kg/injection, schedule: Q04DX003 (ip), vehicle: water 96 % of control | dose: 200.0 mg/kg/injection, schedule: Q01DX009 (ip), vehicle: water 111 % of control | dose: 200.0 mg/kg/injection, schedule: Q04DX002 (ip), vehicle: saline with Tween-80 106 % of control | dose: 200.0 mg/kg/injection, schedule: Q04DX003 (ip), vehicle: water 94 % of control | dose: 400.0 mg/kg/injection, schedule: Q04DX003 (ip), vehicle: water 100 % of control

CCCCCCCCCCNC(=O)C[n+]1cccc(C(=O)Nc2ccc(Cl)cc2)c1
inactive: dose: 6.25 mg/kg/injection, schedule: Q01DX009 (ip), vehicle: acetone 97 % of control | dose: 12.5 mg/kg/injection, schedule: Q01DX009 (ip), vehicle: acetone 92 % of control | dose: 12.5 mg/kg/injection, schedule: Q04DX003 (ip), vehicle: saline 108 % of control | dose: 25.0 mg/kg/injection, schedule: Q04DX003 (ip), vehicle: saline 96 % of control

O=C(O)C(O)Cc1ccc(O)cc1 (configuration not stated)
inactive: dose: 100.0 mg/kg/injection, schedule: Q01DX001 (ip), vehicle: saline 90 % of control | dose: 200.0 mg/kg/injection, schedule: Q01DX001 (ip), vehicle: saline 92 % of control | dose: 400.0 mg/kg/injection, schedule: Q01DX001 (ip), vehicle: saline 97 % of control

CCC(CC)NCCOC(=O)c1ccc(N)cc1
inactive: dose: 75.0 mg/kg/injection, schedule: Q01DX001 (ip), vehicle: saline 100 % of control | dose: 150.0 mg/kg/injection, schedule: Q01DX001 (ip), vehicle: saline 98 % of control
